{
  "source": "ChEMBL document CHEMBL1142633",
  "about": "“A cytotoxic lobane diterpene from the formosan soft coral Sinularia inelegans” (2000)",
  "key": {"[1]": {"tested_on": "A549", "assay": "Cytotoxicity against human A549 cells", "type": "functional"}, "[2]": {"tested_on": "P388", "assay": "Cytotoxicity against mouse P388 cells", "type": "functional"}},
  "data": [
    {"smiles": "C=C[C@@]1(C)CC[C@H](/C(C)=C\\CCC(=C)C)C[C@@H]1C(=C)C", "note": "[INELEGANENE]", "values": [
      {"measurement": "GI50", "setting": "[1]", "value": 3.63, "unit": "µg/mL"},
      {"measurement": "GI50", "setting": "[2]", "value": 0.2, "unit": "µg/mL"}
    ]}
  ]
}
